Results reported in article PMC5218480 (PLoS ONE, 2017).

Tested on: MV-4-11 cells
Assay: Gene expression microarray analysis (Affymetrix PrimeView) and GSEA
Assay type: cell-based, human
Set-up: RFU PODN (11730768_x_at) / Fold change /veh PODN (11730768_x_at) / RFU LINC00158 (11744669_a_at) / Fold change /veh LINC00158 (11744669_a_at) / RFU DUSP10 (11751237_a_at) / Fold change /veh DUSP10 (11751237_a_at) / RFU ID3 (11757404_x_at) / Fold change /veh ID3 (11757404_x_at) / RFU PLEKHG5 (11737974_s_at) / Fold change /veh PLEKHG5 (11737974_s_at) / RFU LRRC4B (11730491_at) / Fold change /veh LRRC4B (11730491_at) / RFU GIMAP4 (11747438_a_at) / Fold change /veh GIMAP4 (11747438_a_at) / RFU KRT8 (11758183_x_at) / Fold change /veh KRT8 (11758183_x_at) / RFU CNN1 (11734310_a_at) / Fold change /veh CNN1 (11734310_a_at) / RFU VPS37D (11726825_at) / Fold change /veh VPS37D (11726825_at) / RFU C10orf10 (11716522_x_at) / Fold change /veh C10orf10 (11716522_x_at) / RFU KIR2DL2 /// KIR2DL4 /// KIR2DL5A /// KIR2DL5B /// KIR2DS1 /// KIR2DS2 /// KIR2DS3 /// KIR2DS4 /// KIR3DL3 /// KIR3DL3 /// KIR3DS1 (11738374_at) / Fold change /veh KIR2DL2 /// KIR2DL4 /// KIR2DL5A /// KIR2DL5B /// KIR2DS1 /// KIR2DS2 /// KIR2DS3 /// KIR2DS4 /// KIR3DL3 /// KIR3DL3 /// KIR3DS1 (11738374_at) / RFU C1QL1 (11718748_at) / Fold change /veh C1QL1 (11718748_at) / RFU TMPRSS4 (11747572_a_at) / Fold change /veh TMPRSS4 (11747572_a_at) / RFU HAMP (11756126_x_at) / Fold change /veh HAMP (11756126_x_at) / RFU RNFT2 (11725882_a_at) / Fold change /veh RNFT2 (11725882_a_at) / RFU NR4A2 (11747474_a_at) / Fold change /veh NR4A2 (11747474_a_at) / RFU ABCC12 (11746883_a_at) / Fold change /veh ABCC12 (11746883_a_at) / RFU TMEM136 (11760407_x_at) / Fold change /veh TMEM136 (11760407_x_at) / RFU CLDN22 /// WWC2 (11732394_at) / Fold change /veh CLDN22 /// WWC2 (11732394_at) / RFU HLA-DPB1 (11760878_x_at) / Fold change /veh HLA-DPB1 (11760878_x_at) / RFU SPINT1 (11716480_a_at) / Fold change /veh SPINT1 (11716480_a_at) / RFU GAP43 (11754022_s_at) / Fold change /veh GAP43 (11754022_s_at) / RFU A4GNT (11735810_at) / Fold change /veh A4GNT (11735810_at) / RFU PRB3 (11715151_x_at) / Fold change /veh PRB3 (11715151_x_at) / RFU TUBB4B (11761932_at) / Fold change /veh TUBB4B (11761932_at) / RFU CAPN14 (11732068_a_at) / Fold change /veh CAPN14 (11732068_a_at) / RFU TMCC2 (11721928_a_at) / Fold change /veh TMCC2 (11721928_a_at) / RFU IRGQ (11745062_a_at) / Fold change /veh IRGQ (11745062_a_at) / RFU FAM174B (11720279_a_at) / Fold change /veh FAM174B (11720279_a_at) / RFU TMPRSS4 (11748680_a_at) / Fold change /veh TMPRSS4 (11748680_a_at) / RFU FAM212B (11763350_a_at) / Fold change /veh FAM212B (11763350_a_at) / RFU PLEKHG5 (11743358_a_at) / Fold change /veh PLEKHG5 (11743358_a_at) / RFU ZSCAN30 (11745921_a_at) / Fold change /veh ZSCAN30 (11745921_a_at) / RFU CMKLR1 (11741424_a_at) / Fold change /veh CMKLR1 (11741424_a_at) / RFU LOC101060620 /// MAPK8IP1 (11723275_at) / Fold change /veh LOC101060620 /// MAPK8IP1 (11723275_at) / RFU SPTSSB (11747773_x_at) / Fold change /veh SPTSSB (11747773_x_at) / RFU PRSS12 (11739890_at) / Fold change /veh PRSS12 (11739890_at) / RFU BIN1 (11741810_x_at) / Fold change /veh BIN1 (11741810_x_at) / RFU WNT11 (11732464_a_at) / Fold change /veh WNT11 (11732464_a_at) / RFU C10orf10 (11716521_a_at) / Fold change /veh C10orf10 (11716521_a_at) / RFU C5orf56 (11738089_at) / Fold change /veh C5orf56 (11738089_at) / RFU CYB561 (11721691_x_at) / Fold change /veh CYB561 (11721691_x_at) / RFU ANKRD19P (11752326_a_at) / Fold change /veh ANKRD19P (11752326_a_at) / RFU OR2T12 /// OR2T33 /// OR2T8 (11738714_s_at) / Fold change /veh OR2T12 /// OR2T33 /// OR2T8 (11738714_s_at) / RFU VCAN (11748164_a_at) / Fold change /veh VCAN (11748164_a_at) / RFU JSRP1 (11732532_at) / Fold change /veh JSRP1 (11732532_at) / RFU KRTAP10-11 (11738290_x_at) / Fold change /veh KRTAP10-11 (11738290_x_at) / RFU MYO3A (11730013_a_at) / Fold change /veh MYO3A (11730013_a_at) / RFU EBF3 (11725865_a_at) / Fold change /veh EBF3 (11725865_a_at) / RFU CAMK2N1 (11719241_x_at) / Fold change /veh CAMK2N1 (11719241_x_at) / RFU C5orf56 (11738088_a_at) / Fold change /veh C5orf56 (11738088_a_at) / RFU OLFML3 (11715873_a_at) / Fold change /veh OLFML3 (11715873_a_at) / RFU LOC100653217 /// NTM (11731650_a_at) / Fold change /veh LOC100653217 /// NTM (11731650_a_at) / RFU MAPK11 (11762145_a_at) / Fold change /veh MAPK11 (11762145_a_at) / RFU FIZ1 (11724087_x_at) / Fold change /veh FIZ1 (11724087_x_at) / RFU OASL (11726364_x_at) / Fold change /veh OASL (11726364_x_at) / RFU SOX15 (11748057_x_at) / Fold change /veh SOX15 (11748057_x_at) / RFU CD79A (11719716_a_at) / Fold change /veh CD79A (11719716_a_at) / RFU HIST1H1D (11736915_at) / Fold change /veh HIST1H1D (11736915_at) / RFU CASKIN2 (11723855_a_at) / Fold change /veh CASKIN2 (11723855_a_at) / RFU LOC730098 (11760151_x_at) / Fold change /veh LOC730098 (11760151_x_at) / RFU OR4N2 (11742367_at) / Fold change /veh OR4N2 (11742367_at) / RFU PRRT2 (11749266_a_at) / Fold change /veh PRRT2 (11749266_a_at) / RFU SNX32 (11753110_a_at) / Fold change /veh SNX32 (11753110_a_at) / RFU CDHR5 (11726645_a_at) / Fold change /veh CDHR5 (11726645_a_at) / RFU RCAN1 (11760418_a_at) / Fold change /veh RCAN1 (11760418_a_at) / RFU FAM167A (11723789_a_at) / Fold change /veh FAM167A (11723789_a_at) / RFU FAM26E (11764081_at) / Fold change /veh FAM26E (11764081_at) / RFU ISYNA1 (11749810_s_at) / Fold change /veh ISYNA1 (11749810_s_at) / RFU ACY1 (11761880_at) / Fold change /veh ACY1 (11761880_at) / RFU 11764098_at / Fold change /veh 11764098_at / RFU SAMD14 (11745864_x_at) / Fold change /veh SAMD14 (11745864_x_at) / RFU NPB (11741838_a_at) / Fold change /veh NPB (11741838_a_at) / RFU TMPRSS6 (11731388_a_at) / Fold change /veh TMPRSS6 (11731388_a_at) / RFU KRTAP10-2 (11738614_at) / Fold change /veh KRTAP10-2 (11738614_at) / RFU ARHGAP8 /// PRR5-ARHGAP8 (11727945_x_at) / Fold change /veh ARHGAP8 /// PRR5-ARHGAP8 (11727945_x_at) / RFU KRTAP5-7 /// NADSYN1 (11734609_at) / Fold change /veh KRTAP5-7 /// NADSYN1 (11734609_at) / RFU RASL12 (11751679_a_at) / Fold change /veh RASL12 (11751679_a_at) / RFU CDKN2B (11736163_a_at) / Fold change /veh CDKN2B (11736163_a_at) / RFU PRF1 (11729649_at) / Fold change /veh PRF1 (11729649_at) / RFU, ZNF638 /// ZNF638-IT1 / Fold change vs veh, ZNF638 /// ZNF638-IT1 / RFU, PANK3 / Fold change vs veh, PANK3 / RFU, SH3YL1 / Fold change vs veh, SH3YL1 / RFU, ZEB2 / Fold change vs veh, ZEB2 / RFU, NRIP1 / Fold change vs veh, NRIP1 / RFU, PTTG1IP / Fold change vs veh, PTTG1IP / RFU, CAPN2 / Fold change vs veh, CAPN2 / RFU, MED14 / Fold change vs veh, MED14 / RFU, SNORA58 / Fold change vs veh, SNORA58 / RFU, C1orf63 / Fold change vs veh, C1orf63 / RFU, LRRFIP1 / Fold change vs veh, LRRFIP1 / RFU, NDUFAF7 / Fold change vs veh, NDUFAF7 / RFU, SLC12A2 / Fold change vs veh, SLC12A2 / RFU, IBTK / Fold change vs veh, IBTK / RFU, ESF1 / Fold change vs veh, ESF1 / Fold change vs veh, TMEM50B / RFU, TAOK1 / Fold change vs veh, TAOK1 / RFU, ACBD3 / Fold change vs veh, ACBD3 / RFU, TMA16 / Fold change vs veh, TMA16 / RFU, RWDD3 / Fold change vs veh, RWDD3 / RFU, BCAT1 / Fold change vs veh, BCAT1 / RFU, EDEM3 / Fold change vs veh, EDEM3 / RFU, TMEM33 / Fold change vs veh, TMEM33 / RFU, WDR75 / Fold change vs veh, WDR75 / RFU, AHCTF1 / Fold change vs veh, AHCTF1 / RFU, TFRC / Fold change vs veh, TFRC / RFU, ZDHHC17 / Fold change vs veh, ZDHHC17 / RFU, NOM1 / Fold change vs veh, NOM1 / RFU, ARL8B / Fold change vs veh, ARL8B / RFU, ZBTB11 / Fold change vs veh, ZBTB11 / RFU, TAMM41 / Fold change vs veh, TAMM41 / RFU, KIAA1704 /// LOC100996395 / Fold change vs veh, KIAA1704 /// LOC100996395 / RFU, ING1 / Fold change vs veh, ING1 / RFU, TRMT61B / Fold change vs veh, TRMT61B / RFU, FUBP3 / Fold change vs veh, FUBP3 / RFU, TP53 / Fold change vs veh, TP53 / RFU, TNKS2 / Fold change vs veh, TNKS2 / RFU, ZFP14 / Fold change vs veh, ZFP14 / RFU, ACTR2 / Fold change vs veh, ACTR2 / RFU, PPP3R1 / Fold change vs veh, PPP3R1 / RFU, PIK3R1 / Fold change vs veh, PIK3R1 / RFU, HNRNPA1 / Fold change vs veh, HNRNPA1 / RFU, RNF170 / Fold change vs veh, RNF170 / RFU, ZNF28 / Fold change vs veh, ZNF28 / RFU, RNGTT / Fold change vs veh, RNGTT / RFU, OGT / Fold change vs veh, OGT / RFU, BRD1 / Fold change vs veh, BRD1 / RFU, MARS / Fold change vs veh, MARS / RFU, ZNF655 / Fold change vs veh, ZNF655 / RFU, FAHD1 / Fold change vs veh, FAHD1 / RFU, BDP1 / Fold change vs veh, BDP1 / RFU, LRRCC1 / Fold change vs veh, LRRCC1 / RFU, ARID1A / Fold change vs veh, ARID1A / RFU, ZNF146 / Fold change vs veh, ZNF146 / RFU, ZNF330 / Fold change vs veh, ZNF330 / RFU, GPN3 / Fold change vs veh, GPN3 / RFU, C9orf123 / Fold change vs veh, C9orf123 / RFU, N4BP2L2 / Fold change vs veh, N4BP2L2 / RFU, ARFIP1 / Fold change vs veh, ARFIP1 / RFU, FAM179B / Fold change vs veh, FAM179B / RFU, BCL10 / Fold change vs veh, BCL10 / RFU, UHRF1BP1L / Fold change vs veh, UHRF1BP1L / RFU, BET1 / Fold change vs veh, BET1 / RFU, CNOT2 / Fold change vs veh, CNOT2 / RFU, ZNF268 / Fold change vs veh, ZNF268 / Fold change vs veh, ZNF507 / RFU, DGCR2 / Fold change vs veh, DGCR2 / RFU, WDSUB1 / Fold change vs veh, WDSUB1 / Fold change vs veh, HSP90B1 /// MIR3652 / RFU, ADSS / Fold change vs veh, ADSS / RFU, GK / Fold change vs veh, GK / RFU, ZNF148 / Fold change vs veh, ZNF148 / RFU, TAF9 / Fold change vs veh, TAF9 / RFU, SLC1A5 / Fold change vs veh, SLC1A5 / RFU, SLMO2 / Fold change vs veh, SLMO2 / RFU, ABCC4 / Fold change vs veh, ABCC4 / RFU, LOC101060439 /// RAP1B / Fold change vs veh, LOC101060439 /// RAP1B / RFU, RFX7 / Fold change vs veh, RFX7 / RFU, GTPBP10 / Fold change vs veh, GTPBP10 / RFU, CNEP1R1 / Fold change vs veh, CNEP1R1 / RFU, BIVM-ERCC5 /// ERCC5 / Fold change vs veh, BIVM-ERCC5 /// ERCC5 / RFU, ILF3 / Fold change vs veh, ILF3 / RFU 11762660_at / Fold change /veh 11762660_at / RFU VCAN (11757783_s_at) / Fold change /veh VCAN (11757783_s_at) / RFU DDX43 (11728927_at) / Fold change /veh DDX43 (11728927_at) / RFU KRT8 (11758188_x_at) / Fold change /veh KRT8 (11758188_x_at) / RFU NKD1 (11759106_at) / Fold change /veh NKD1 (11759106_at) / RFU SRD5A1 (11742802_a_at) / Fold change /veh SRD5A1 (11742802_a_at) / RFU TPSAB1 /// TPSB2 (11721975_s_at) / Fold change /veh TPSAB1 /// TPSB2 (11721975_s_at) / RFU GSTM3 (11746129_a_at) / Fold change /veh GSTM3 (11746129_a_at) / RFU IL23R (11737362_x_at) / Fold change /veh IL23R (11737362_x_at) / RFU TMEM51 (11727254_a_at) / Fold change /veh TMEM51 (11727254_a_at) / RFU PIWIL2 (11732686_x_at) / Fold change /veh PIWIL2 (11732686_x_at) / RFU ORM1 (11744905_x_at) / Fold change /veh ORM1 (11744905_x_at) / RFU CCDC152 (11743942_at) / Fold change /veh CCDC152 (11743942_at) / RFU ECM1 (11717891_a_at) / Fold change /veh ECM1 (11717891_a_at) / RFU IL23R (11748794_a_at) / Fold change /veh IL23R (11748794_a_at) / RFU TNFAIP8L3 (11732012_x_at) / Fold change /veh TNFAIP8L3 (11732012_x_at) / RFU MBOAT4 (11741988_at) / Fold change /veh MBOAT4 (11741988_at) / RFU 11764193_at / Fold change /veh 11764193_at / RFU TMEM53 (11763286_at) / Fold change /veh TMEM53 (11763286_at) / RFU MAGEB2 (11727129_at) / Fold change /veh MAGEB2 (11727129_at) / RFU TMEM200A (11744735_a_at) / Fold change /veh TMEM200A (11744735_a_at) / RFU CCDC152 (11751479_a_at) / Fold change /veh CCDC152 (11751479_a_at) / RFU FAM211A (11726209_a_at) / Fold change /veh FAM211A (11726209_a_at) / RFU RGS16 (11746705_a_at) / Fold change /veh RGS16 (11746705_a_at) / RFU VCAN (11755009_s_at) / Fold change /veh VCAN (11755009_s_at) / RFU RHOB (11743442_s_at) / Fold change /veh RHOB (11743442_s_at) / RFU RGS16 (11720943_a_at) / Fold change /veh RGS16 (11720943_a_at) / RFU RGS16 (11720944_at) / Fold change /veh RGS16 (11720944_at) / RFU, VPS4B / Fold change vs veh, VPS4B / RFU, CREB1 / Fold change vs veh, CREB1 / RFU, DNAJC13 / Fold change vs veh, DNAJC13 / RFU, GNAQ / Fold change vs veh, GNAQ / RFU, CDK5R1 / Fold change vs veh, CDK5R1 / RFU, ZRANB3 / Fold change vs veh, ZRANB3 / RFU, CUL4A / Fold change vs veh, CUL4A / RFU, CCNY / Fold change vs veh, CCNY / RFU, UFL1 / Fold change vs veh, UFL1 / RFU, COG3 / Fold change vs veh, COG3 / RFU, DIAPH2 / Fold change vs veh, DIAPH2 / RFU, SKA2 / Fold change vs veh, SKA2 / RFU, AFF3 / Fold change vs veh, AFF3 / RFU, LMF1 / Fold change vs veh, LMF1 / RFU, IPO11 / Fold change vs veh, IPO11 / RFU, DFFB / Fold change vs veh, DFFB / RFU, FOXP1 / Fold change vs veh, FOXP1 / RFU, CARD8 / Fold change vs veh, CARD8 / RFU, STRN3 / Fold change vs veh, STRN3 / RFU, ADK / Fold change vs veh, ADK / RFU, RASSF2 / Fold change vs veh, RASSF2 / RFU, WIPF1 / Fold change vs veh, WIPF1 / RFU, LARP1B / Fold change vs veh, LARP1B / RFU, RASA1 / Fold change vs veh, RASA1 / RFU, RB1 / Fold change vs veh, RB1 / RFU, PPFIA1 / Fold change vs veh, PPFIA1 / RFU, MAT2A / Fold change vs veh, MAT2A / RFU, CCT5 / Fold change vs veh, CCT5 / RFU, WDR92 / Fold change vs veh, WDR92 / RFU, CUX1 / Fold change vs veh, CUX1 / RFU, TTC7A / Fold change vs veh, TTC7A / RFU, TMEM135 / Fold change vs veh, TMEM135 / RFU, DEPTOR / Fold change vs veh, DEPTOR / RFU, CPM / Fold change vs veh, CPM / RFU, DNAJB6 / Fold change vs veh, DNAJB6 / RFU, CACNA2D3 / Fold change vs veh, CACNA2D3 / RFU, DTX4 / Fold change vs veh, DTX4 / RFU, TFCP2 / Fold change vs veh, TFCP2 / RFU, GMCL1 /// GMCL1P1 / Fold change vs veh, GMCL1 /// GMCL1P1 / RFU, AEBP2 / Fold change vs veh, AEBP2 / RFU, SNHG1 /// SNORD22 /// SNORD25 /// SNORD26 /// SNORD27 /// SNORD28 /// SNORD29 /// SNORD31 / Fold change vs veh, SNHG1 /// SNORD22 /// SNORD25 /// SNORD26 /// SNORD27 /// SNORD28 /// SNORD29 /// SNORD31 / Fold change (Aza/veh), C12orf56 (ProbeSet 11735607_a_at) / Fold change (ACY-1035/veh), C12orf56 (ProbeSet 11735607_a_at) / Fold change (Aza/veh), FGFR1OP (ProbeSet 11751329_s_at) / Fold change (ACY-1035/veh), FGFR1OP (ProbeSet 11751329_s_at) / Fold change (Aza/veh), VPS36 (ProbeSet 11739960_a_at) / Fold change (ACY-1035/veh), VPS36 (ProbeSet 11739960_a_at) / RFU SYPL1 (11715823_x_at) / Fold change /veh SYPL1 (11715823_x_at) / RFU IGFBP7 (11715501_s_at) / Fold change /veh IGFBP7 (11715501_s_at) / RFU REEP3 (11722064_at) / Fold change /veh REEP3 (11722064_at) / RFU IGLL1 (11728026_x_at) / Fold change /veh IGLL1 (11728026_x_at): dose or concentration left out as unconfirmed
Conditions: MV-4-11 cells, 48 hours

Nc1ccc(-c2cccs2)cc1NC(=O)c1ccc2c(c1)cc(C1CC1)n2CCN1CCOCC1 [ACY-1035]
Fold change /veh ARHGAP8 /// PRR5-ARHGAP8 (11727945_x_at): 1.04
